Patent publication US12642786B2, “Methods, compositions and kits for treating multiple sclerosis and other disorders” (The Johns Hopkins University, priority 2018, dated 2026)

Legend:
[1] = system: mixed glial cultures (MGCs); assay: Mixed glial cultures, iNOS / Arg1 immunoblot; assay type: cell-based, C57BL/6J mice
Method: Mixed glial cultures (MGCs) obtained from the cerebral cortices of P1-P3 neonatal C57BL/6J mice were used, prepared as described by Saura et al., Glia (2003) 44:183-189. Mixed glial cultures were treated with LPS (FIG. 6A) or IL4 (FIG. 6B) ±vehicle or the indicated dose of bryo-1. Expression of iNOS or Argl, respectively, was assessed by immunoblot. Images are representative of 3 independent experiments.

[2] = system: CD4+, Th1 and Th17 lymphocytes in EAE mice; assay: Flow cytometry of spinal cord in EAE mice treated from clinical score 1.0; assay type: in vivo, C57BL/6J mice; details: day 18 post-immunization (late peak), treatment started at score 1.0
Method: Mice were killed with pentobarbital and perfused via cardiac puncture with ice-cold HBSS without cations. Brain, spinal cord (collected using hydrostatic pressure), spleen, and lymph node tissue were isolated after perfusion and were mechanically dissociated by passing through 100-μm cell strainers. For CNS tissue, after dissociation, infiltrating mononuclear cells were separated from myelin debris using a 37/70% percoll gradient. After dissociation, spleens were incubated in ACK lysis buffer to remove red blood cell contamination. Cells were counted using a MACSQuant flow cytometer (Miltenyi Biotec).
For surface marker and intracellular cytokine staining of T cells, the cells were first restimulated with a cell stimulation mixture with protein transport inhibitors (eBioscience, catalog #00-4975-03) for 4 h in cRPMI at 37° C. They then underwent live/dead and surface marker staining as earlier. For intracellular cytokine staining, cells were permeabilized and fixed using either IC Fixation buffer for cytokine analysis (eBioscience, 00-8222-49) or FoxP3 fixation/permeabilization buffer for transcription factor analysis (eBioscience, 00-5521-00) after manufacturer recommended protocol and incubated with specific conjugated antibodies for the specified proteins in permeabilization buffer for 1 h.
(§1) Cells were analyzed by flow cytometry using a MACSQuant flow cytometer (Miltenyi Biotec). Flow data analysis was performed in FlowJo (FlowJo) or FlowLogic (Inivai).

[3] = system: bone marrow-derived dendritic cells (BMDCs); assay: BMDC CD40 and CD86 expression by flow cytometry; assay type: cell-based, C57BL/6J mice
Method: All staining procedures were performed in the dark at room temperature. For analysis of surface marker expression on bone marrow-derived DCs, cells were first stained with LIVE/DEAD aqua (Life Technologies, L-34966) for 30 min at room temperature in PBS. Fc receptors were blocked with anti-CD16/CD32 (Biolegend, 101320) for the final 10 min of staining. The cells were then washed and stained with specific conjugated antibodies for the specified surface markers in FACS buffer (PBS supplemented with 2% FBS and 1 mM EDTA) for 30 min.
as §1
(§2) BMDCs were generated as described in Lutz, “An advanced culture method for generating large quantities of highly pure dendritic cells from mouse bone marrow,” 1999, J. Immunol. Methods 223:77-92, with minor modifications. Briefly, femurs were removed from 6-10-wk-old female C57BL/6J mice, cut on both ends, and marrow flushed with PBS. Bone marrow cells were then pelleted by centrifugation (500×g for 8 min), resuspended in red blood cell lysis buffer (Sigma) for 1 min, and quenched with excess PBS. After another centrifugation, cells were resuspended in complete RPMI (cRPMI) media consisting of RPMI-1640 with GlutaMAX™ supplement (Thermo Fisher Scientific) supplemented with 10% FBS, penicillin-streptomycin (Gibco), and 50 μM 2-mercaptoethanol (Sigma). On day 0, ˜2×10^6 cells were then seeded per 100-mm plate in 10 mL media containing 20 ng/mL rmGM-CSF (Peprotech). On day 3, an additional 10 mL fresh cRPMI media containing 20 ng/mL rmGM-CSF was added to each plate. On day 6, half the culture supernatant from each plate was removed and centrifuged, and the pelleted cells resuspended in 10 mL fresh cRPMI with 20 ng/mL rmGM-CSF and added back to the plates. On day 8, all nonadherent cells (representing the BMDC fraction) were collected, pelleted by centrifugation, resuspended in fresh cRPMI media with 20 ng/mL rmGM-CSF, and plated into 24-well dishes. These BMDCs were then treated overnight with or without LPS 100 ng/mL plus the indicated doses of bryo-1. The following day (day 9), these cells were then assayed by flow cytometry or cytokine ELISA.

[4] = system: EAE (MOG35-55 immunized mice); assay: EAE prevention paradigm, clinical scoring; assay type: in vivo, C57BL/6J mice; details: 30 μg/kg i.p. 3 d per week from day of MOG35-55 immunization (day 0)
Text: Experimental autoimmune encephalomyelitis (EAE) is an experimental animal model that recapitulates some aspects of MS. In the active-induction model of mouse EAE, mice are immunized with a peptide derived from myelin oligodendrocyte glycoprotein (MOG35-55), resulting in robust CNS inflammation causing demyelination, axonal injury, and motor weakness/paralysis.
Active EAE was induced in 8-12 wk-old female C57BL/6J mice that had been allowed to acclimatize to the animal facility for at least 1 wk. MOG35-55 peptide dissolved in PBS at a concentration of 2 mg/mL was mixed 1:1 with complete Freund's adjuvant to make an emulsion. On day 0, mice were immunized by injecting 50 μL of the emulsion s.c. into each of two sites on the lateral abdomen. In addition, on day 0 and again on day 2, mice were injected intraperitoneally with 250 ng pertussis toxin. Mice were weighed and scored beginning on day 7 post-immunization. Scoring was performed in a blinded manner according to the following scale:
Bryo-1 was prepared by initially dissolving in 100% ethanol and then further diluting to 20% ethanol and 1% DMSO in PBS. The final concentration of bryo-1 was […] Mice were treated by i.p. injection of […] bryo-1 or an equal volume of vehicle control (20% ethanol and 1% DMSO in PBS) 3 d per week (Monday, Wednesday, Friday). […]

[5] = system: LPS-stimulated BMDCs; assay: BMDC cytokine secretion by ELISA; assay type: cell-based, C57BL/6J mice
Method: as §2
After overnight treatment of BMDCs or mPMs with LPS 100 ng/mL±bryo-1, culture supernatants were collected and cytokine production was assayed using ELISA kits for IL-12 p70 (catalog #88-7121-22), IL-6 (catalog #88-7064-22), and IL-10 (catalog #88-7105-22) purchased from eBioscience, according to manufacturer's instructions. Plates were read at 450 nm on a tabletop plate reader.

CCC/C=C/C=C/C(=O)OC1/C(=C/C(=O)OC)CC2CC(C(C)O)OC(=O)CC(O)CC3CC(OC(C)=O)C(C)(C)C(O)(CC4C/C(=C/C(=O)OC)CC(/C=C/C(C)(C)C1(O)O2)O4)O3 (stereo not shown) [bryo-1, Bryostatin-1]
expression of Argl (M2 marker) ([1]; MGCs treated with IL4, dose as low as 1 nM): dramatically augmented expression
induction of iNOS (an M1 marker) by LPS ([1]; MGCs treated with LPS): blocked the induction
numbers of Th1 cells in spinal cord [2]: significantly diminished numbers
numbers of Th17 cells in spinal cord [2]: significantly diminished numbers
total CD4+ lymphocytes in spinal cord [2]: near-significant trend (P=0.06) toward decreased
CD86 expression in LPS-stimulated BMDCs ([3]; LPS 100 ng/mL): no effect
LPS-induced up-regulation of CD40 ([3]; LPS 100 ng/mL, bryo-1 at either 20 or 200 nM): abrogated
CD40 expression ([3]; absence of LPS, overnight): no significant effect
CD86 expression ([3]; absence of LPS, overnight): up-regulates CD86
onset of EAE (clinical course) [4]: abolished the onset of EAE
LPS-induced secretion of IL-12 ([5]; BMDCs, LPS 100 ng/mL, bryo-1 10 nM, overnight): abrogated
secretion of IL-10 ([5]; BMDCs, LPS 100 ng/mL, overnight): significantly augmented
concentration with direct anti-inflammatory effects on DCs and macrophages (as low as) ([5]; DCs and macrophages): 10 nM
